Data reported in US20250136578A1 (Kolm Therapeutics Inc., priority 2023, published 2025).
Like-named read-outs stand apart in the source and are kept apart here.

How the values were obtained:
VCaP cells = test: VCaP growth inhibition assay (CTG); type: cell-based; details: Homo sapiens, 216 h, 30 pM R1881, 9 days
Summary of the method: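 VCaP cells in phenol red-free DMEM with 5% charcoal-stripped serum were stimulated with 30 pM R1881 (final) and treated with compound from 100 nM to 10 fM final (1:5 dilutions) for 9 days at 37 °C. Viability was read by CellTiter-Glo luminescence, and IC50 came from 4-parameter logistic fits.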

AR / CBP ternary complex = AR / CBP ternary complex (Homo sapiens, UniProt P10275+Q92793); test: Ternary complex formation assay (sandwich ELISA, AR capture, CBP antibody detection) in VCaP cell lysates; type: cell-based
AR / CBP ternary complex, sequence (P10275 whole entry): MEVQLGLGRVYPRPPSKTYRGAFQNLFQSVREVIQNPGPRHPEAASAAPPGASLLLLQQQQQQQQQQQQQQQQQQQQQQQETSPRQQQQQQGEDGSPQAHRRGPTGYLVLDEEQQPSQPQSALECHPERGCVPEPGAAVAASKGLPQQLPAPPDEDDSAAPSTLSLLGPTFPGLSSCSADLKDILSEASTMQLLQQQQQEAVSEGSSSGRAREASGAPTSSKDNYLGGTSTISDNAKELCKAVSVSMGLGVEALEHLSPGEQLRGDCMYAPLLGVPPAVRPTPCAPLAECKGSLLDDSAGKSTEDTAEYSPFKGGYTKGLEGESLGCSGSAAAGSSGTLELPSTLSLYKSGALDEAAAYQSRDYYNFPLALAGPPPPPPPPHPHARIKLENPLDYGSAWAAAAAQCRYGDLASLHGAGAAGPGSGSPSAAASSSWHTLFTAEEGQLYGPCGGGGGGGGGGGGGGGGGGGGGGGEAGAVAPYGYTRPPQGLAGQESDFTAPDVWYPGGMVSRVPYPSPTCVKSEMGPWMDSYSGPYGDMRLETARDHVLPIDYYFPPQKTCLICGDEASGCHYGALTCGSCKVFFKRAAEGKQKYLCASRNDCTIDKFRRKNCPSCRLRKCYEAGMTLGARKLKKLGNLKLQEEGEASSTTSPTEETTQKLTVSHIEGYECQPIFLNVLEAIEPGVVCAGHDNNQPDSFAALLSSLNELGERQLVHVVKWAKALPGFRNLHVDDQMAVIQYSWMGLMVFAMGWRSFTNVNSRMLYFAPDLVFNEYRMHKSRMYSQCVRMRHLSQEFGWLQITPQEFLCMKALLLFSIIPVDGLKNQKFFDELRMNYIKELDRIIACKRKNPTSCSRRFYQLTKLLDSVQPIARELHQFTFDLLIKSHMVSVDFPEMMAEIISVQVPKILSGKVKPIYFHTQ
AR / CBP ternary complex, sequence (Q92793 2-2442): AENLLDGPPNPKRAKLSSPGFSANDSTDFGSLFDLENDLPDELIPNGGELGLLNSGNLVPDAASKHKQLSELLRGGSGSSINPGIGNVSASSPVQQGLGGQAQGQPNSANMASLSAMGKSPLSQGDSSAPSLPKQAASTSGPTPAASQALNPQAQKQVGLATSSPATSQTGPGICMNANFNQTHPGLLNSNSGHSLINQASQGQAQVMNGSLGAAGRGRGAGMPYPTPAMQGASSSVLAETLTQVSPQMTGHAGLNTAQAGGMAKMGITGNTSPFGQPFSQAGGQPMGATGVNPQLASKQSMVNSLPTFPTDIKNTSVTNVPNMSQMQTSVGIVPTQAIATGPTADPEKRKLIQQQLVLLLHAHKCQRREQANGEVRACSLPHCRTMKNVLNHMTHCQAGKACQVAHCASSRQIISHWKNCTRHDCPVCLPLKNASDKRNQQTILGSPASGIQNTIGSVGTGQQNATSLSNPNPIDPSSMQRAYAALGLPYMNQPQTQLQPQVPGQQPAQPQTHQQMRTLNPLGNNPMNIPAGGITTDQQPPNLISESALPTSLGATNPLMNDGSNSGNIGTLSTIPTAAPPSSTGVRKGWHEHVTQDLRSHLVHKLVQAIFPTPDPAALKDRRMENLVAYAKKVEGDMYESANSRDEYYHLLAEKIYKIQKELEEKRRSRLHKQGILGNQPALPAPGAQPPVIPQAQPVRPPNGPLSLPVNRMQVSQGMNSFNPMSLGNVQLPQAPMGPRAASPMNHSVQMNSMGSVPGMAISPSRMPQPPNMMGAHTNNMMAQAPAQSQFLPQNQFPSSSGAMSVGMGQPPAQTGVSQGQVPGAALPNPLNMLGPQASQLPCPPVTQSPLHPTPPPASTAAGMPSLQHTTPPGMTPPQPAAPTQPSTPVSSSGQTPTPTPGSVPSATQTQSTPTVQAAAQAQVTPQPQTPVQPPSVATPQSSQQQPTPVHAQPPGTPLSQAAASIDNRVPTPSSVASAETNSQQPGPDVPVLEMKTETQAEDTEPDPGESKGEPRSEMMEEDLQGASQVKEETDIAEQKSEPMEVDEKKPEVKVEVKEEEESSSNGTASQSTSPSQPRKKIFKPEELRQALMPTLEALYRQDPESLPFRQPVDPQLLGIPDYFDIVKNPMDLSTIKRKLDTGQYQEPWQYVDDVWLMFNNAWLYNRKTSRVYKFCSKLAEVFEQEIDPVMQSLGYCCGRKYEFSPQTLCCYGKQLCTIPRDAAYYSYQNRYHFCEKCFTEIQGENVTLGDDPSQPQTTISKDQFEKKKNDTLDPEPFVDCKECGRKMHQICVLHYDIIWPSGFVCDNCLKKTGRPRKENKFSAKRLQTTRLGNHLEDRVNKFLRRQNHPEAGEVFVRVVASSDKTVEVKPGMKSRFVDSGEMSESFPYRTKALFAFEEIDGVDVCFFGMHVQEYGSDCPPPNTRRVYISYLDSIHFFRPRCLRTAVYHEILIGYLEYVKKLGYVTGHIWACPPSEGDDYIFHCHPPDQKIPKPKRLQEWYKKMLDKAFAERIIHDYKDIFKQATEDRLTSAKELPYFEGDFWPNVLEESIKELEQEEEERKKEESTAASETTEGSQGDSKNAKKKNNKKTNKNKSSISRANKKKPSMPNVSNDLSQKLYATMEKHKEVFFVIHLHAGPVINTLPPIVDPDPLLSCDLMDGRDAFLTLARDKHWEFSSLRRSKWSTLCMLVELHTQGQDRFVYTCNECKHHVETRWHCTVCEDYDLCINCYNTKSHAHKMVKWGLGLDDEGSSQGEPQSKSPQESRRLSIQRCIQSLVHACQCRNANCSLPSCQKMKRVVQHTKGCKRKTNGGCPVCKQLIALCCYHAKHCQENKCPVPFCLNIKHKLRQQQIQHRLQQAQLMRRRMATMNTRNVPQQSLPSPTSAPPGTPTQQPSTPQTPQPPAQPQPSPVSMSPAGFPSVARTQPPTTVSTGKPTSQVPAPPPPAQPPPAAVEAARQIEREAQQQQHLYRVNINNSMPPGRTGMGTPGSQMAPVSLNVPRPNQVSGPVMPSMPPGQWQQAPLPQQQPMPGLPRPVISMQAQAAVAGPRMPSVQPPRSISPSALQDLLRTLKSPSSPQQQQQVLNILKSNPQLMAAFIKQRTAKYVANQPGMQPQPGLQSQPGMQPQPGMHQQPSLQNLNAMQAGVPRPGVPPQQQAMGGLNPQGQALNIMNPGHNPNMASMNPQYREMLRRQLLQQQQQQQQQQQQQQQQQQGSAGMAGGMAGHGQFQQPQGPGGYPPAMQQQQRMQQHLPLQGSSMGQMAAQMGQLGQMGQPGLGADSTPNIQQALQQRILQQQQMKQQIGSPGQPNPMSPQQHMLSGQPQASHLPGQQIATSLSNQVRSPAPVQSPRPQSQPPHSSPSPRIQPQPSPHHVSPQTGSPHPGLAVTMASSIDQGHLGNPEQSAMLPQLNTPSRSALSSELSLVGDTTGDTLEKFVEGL
Summary of the method: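 VCaP cells in 5% charcoal-stripped FBS were cultured ≥3 days and then given bifunctional compound for 1.5 h. Lysates went onto AR-antibody-coated plates. Bound CBP (or p300) was detected with a rabbit antibody plus HRP anti-rabbit, using QuantaRed chemifluorescence (ex 570/em 585) read immediately, at 5 min and at 15 min.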

[1] = treated 1.5 hours, rabbit CBP or p300 antibody detection, average, read-out: Average Ternary Complex
[2] = read-out: Average Ternary Complex, treated 1.5 hours, rabbit CBP or p300 antibody detection

Structure (SMILES) | IC50 (VCaP cells) [nM] | EC50 (AR / CBP ternary complex; [1]) [nM] | EC50 (AR / CBP ternary complex; [2]) [nM]
CC(=O)N1CCc2c(c(N3CCCc4cc(-c5cnn(C)c5)c(C(F)F)cc43)nn2C2CCN(C(=O)C3CCN(c4ccc(C(=O)N[C@H]5CC[C@H](Oc6ccc(C#N)c(Cl)c6)CC5)nn4)CC3)CC2)C1 [Compound 2] | ≤ 0.1 | < 1 | 
CC(=O)N1CCc2c(c(N3CCCc4cc(C#N)ccc43)nn2C2CC3(C2)CN(C(=O)C2CC4(C2)CN(c2ccc(C(=O)N[C@H]5CC[C@H](Oc6ccc(C#N)c(Cl)c6)CC5)nn2)C4)C3)C1 (stereo partly shown) [Compound 44, 6-[6-[6-[5-acetyl-3-(6-cyano-3,4-dihydro-2H-quinolin-1-yl)-6,7-dihydro-4H-pyrazolo[4,3-c]pyridin-1-yl]-2-azaspiro [3.3]heptane-2-carbonyl]-2-azaspiro[3.3]heptan-2-yl]-N-[4-(3-chloro-4-cyano-phenoxy)cyclohexyl] pyridazine-3-carboxamide] | 0.1 to 1 | < 1 | 
Cn1cc(-c2cc3c(cc2C(F)F)N(c2cc(C4=CCN(CC5CCN(c6ccc(C(=O)N[C@H]7CC[C@H](Oc8ccc(C#N)c(Cl)c8)CC7)nn6)CC5)CC4)c4c(c2)n(C)c(=O)n4C)CCC3)cn1 [Compound 148] | 0.1 to 1 | < 1 | 
CC(=O)N1CCc2c(c(N3CCCc4cc(-c5cnn(C)c5)c(C)cc43)nn2C2CCN(C3CCC4(CC3)CN(c3ccc(C(=O)N[C@H]5CC[C@H](Oc6ccc(C#N)c(Cl)c6C)CC5)nn3)C4)CC2)C1 [Compound 300, 6-[7-[4-[5-acetyl-3-[7-methyl-6-(1-methylpyrazol-4-yl)-3,4-dihydro-2H-quinolin-1-yl]-6,7-dihydro-4H-pyrazolo[4,3-c]pyridin-1-yl]-1-piperidyl]-2-azaspiro[3.5]nonan-2-yl]-N-[4-(3-chloro-4-cyano-2-methyl-phenoxy)cyclohexyl]pyridazine-3-carboxamide] | ≤ 0.1 | < 1 | 
Cn1c(=O)n(C)c2cc(N3CCCc4cc(-c5ccc(CCC6CCN(c7ccc(C(=O)N[C@H]8CC[C@H](Oc9ccc(C#N)c(Cl)c9)CC8)nn7)CC6)nc5)c(C(F)F)cc43)ccc21 [Compound 53, N-[4-(3-chloro-4-cyano-phenoxy)cyclohexyl]-6-[4-[2-[5-[7-(difluoromethyl)-1-(1,3-dimethyl-2-oxo-benzimidazol-5-yl)-3,4-dihydro-2H-quinolin-6-yl]-2-pyridyl]ethyl]-1-piperidyl] pyridazine-3-carboxamide] | > 100 |  | < 1
CC(=O)N1CCc2c(c(N3CCCc4cc(-c5cnn(C)c5)c(C(F)F)cc43)nn2C2CCN(CC3CCN(c4ccc(C(=O)N[C@H]5CC[C@H](Oc6ccc(C#N)c(Cl)c6)CC5)nn4)CC34CC4)CC2)C1 (stereo partly shown) [Compound 231, 6-[8-[[4-[5-acetyl-3-[7-(difluoromethyl)-6-(1-methylpyrazol-4-yl)-3,4-dihydro-2H-quinolin-1-yl]-6,7-dihydro-4H-pyrazolo[4,3-c]pyridin-1-yl]-1-piperidyl]methyl]-5-azaspiro[2.5]octan-5-yl]-N-[4-(3-chloro-4-cyano-phenoxy)cyclohexyl]pyridazine-3-carboxamide] | ≤ 0.1 | < 1 | 
Cc1noc(C)c1-c1ccc2c(c1)nc(C1CCCC(=O)N1c1ccc(F)c(F)c1)n2C1CCN(CC2CCN(c3ccc(C(=O)N[C@H]4CC[C@H](Oc5ccc(C#N)c(Cl)c5)CC4)nn3)CC2)CC1 (stereo partly shown) [Compound 127, N-[4-(3-chloro-4-cyano-phenoxy)cyclohexyl]-6-[4-[[4-[2-[1-(3,4-difluorophenyl)-6-oxo-2-piperidyl]-5-(3,5-dimethylisoxazol-4-yl)benzimidazol-1-yl]-1-piperidyl]methyl]-1-piperidyl]pyridazine-3-carboxamide] | > 100 | > 100 | 
CC(=O)N1CCc2c(c(N3CCCc4cc(-c5cnn(C)c5)c(C(F)F)cc43)nn2C2CCN(CC3C4CC3CN(c3ccc(C(=O)N[C@H]5CC[C@H](Oc6ccc(C#N)c(Cl)c6)CC5)nn3)C4)CC2)C1 (stereo partly shown) [Compound 118, 6-[6-[[4-[5-acetyl-3-[7-(difluoromethyl)-6-(1-methylpyrazol-4-yl)-3,4-dihydro-2H-quinolin-1-yl]-6,7-dihydro-4H-pyrazolo[4,3-c]pyridin-1-yl]-1-piperidyl]methyl]-3-azabicyclo [3.1.1]heptan-3-yl]-N-[4-(3-chloro-4-cyano-phenoxy)cyclohexyl] pyridazine-3-carboxamide] | 0.1 to 1 |  | < 1
COc1cc(O[C@H]2CC[C@H](NC(=O)c3ccc(N4CCC(CN5CCC(n6nc(N7CCCc8cc(-c9cnn(C)c9)c(C(F)F)cc87)c7c6CCN(C(C)=O)C7)CC5)CC4)cc3)CC2)ccc1C#N [Compound 140, 4-[4-[[4-[5-acetyl-3-[7-(difluoromethyl)-6-(1-methylpyrazol-4-yl)-3,4-dihydro-2H-quinolin-1-yl]-6,7-dihydro-4H-pyrazolo[4,3-c]pyridin-1-yl]-1-piperidyl]methyl]-1-piperidyl]-N-[4-(4-cyano-3-methoxy-phenoxy)cyclohexyl]benzamide] | ≤ 0.1 | < 1 | 
CC(=O)N1CCc2c(c(N3CCCc4cc(-c5cnn(C)c5)c(C(F)F)cc43)nn2C2CCN(C3CC(C#Cc4ccc(C(=O)N[C@H]5CC[C@H](Oc6ccc(C#N)c(Cl)c6)CC5)nn4)C3)CC2)C1 (stereo partly shown) [Compound 195, 6-[2-[3-[4-[5-acetyl-3-[7-(difluoromethyl)-6-(1-methylpyrazol-4-yl)-3,4-dihydro-2H-quinolin-1-yl]-6,7-dihydro-4H-pyrazolo[4,3-c]pyridin-1-yl]-1-piperidyl]cyclobutyl]ethynyl]-N-[4-(3-chloro-4-cyano-phenoxy)cyclohexyl]pyridazine-3-carboxamide] | ≤ 0.1 | < 1 | 
CC(=O)N1CCc2c(c(-c3cccc4cc(-c5cnn(CCC6CC7(C6)CN(c6ccc(C(=O)N[C@H]8CC[C@H](Oc9ccc(C#N)c(Cl)c9)CC8)nn6)C7)c5)ncc34)nn2C2CCOCC2)C1 [Compound 49, 6-[6-[2-[4-[8-(5-acetyl-1-tetrahydropyran-4-yl-6,7-dihydro-4H-pyrazolo[4,3-c]pyridin-3-yl)-3-isoquinolyl]pyrazol-1-yl]ethyl]-2-azaspiro[3.3]heptan-2-yl]-N-[4-(3-chloro-4-cyano-phenoxy)cyclohexyl]pyridazine3-carboxamide] | 0.1 to 1 | < 1 | 

Now from value to compound, other results behind:

IC50 (VCaP cells) [nM] | EC50 (AR / CBP ternary complex; [1]) [nM] | Structure (SMILES) | EC50 (AR / CBP ternary complex; [2]) [nM]
1 to 100 | 1 to 10 | CC(=O)N1CCc2c(c(N3CCCc4cc(-c5ccc(CCC6CCN(c7ccc(C(=O)N[C@H]8CC[C@H](Oc9ccc(C#N)c(Cl)c9)CC8)nn7)CC6)cc5)ncc43)nn2C2CCOCC2)C1 [Compound 156, 6-[4-[2-[4-[1-(5-acetyl-1-tetrahydropyran-4-yl-6,7-dihydro-4H-pyrazolo[4,3-c]pyridin-3-yl)-3,4-dihydro-2H-1,7-naphthyridin-6-yl]phenyl]ethyl]-1-piperidyl]-N-[4-(3-chloro-4-cyano-phenoxy)cyclohexyl]pyridazine-3-carboxamide] | 
0.1 to 1 | < 1 | CC(=O)N1CCc2c(c(-c3cccc4cc(-c5ccc(CCOC6CCN(c7ccc(C(=O)N[C@H]8CC[C@H](Oc9ccc(C#N)c(Cl)c9)CC8)nn7)CC6)nc5)ncc34)nn2C2CCOCC2)C1 [Compound 27, 6-[4-[2-[5-[8-(5-acetyl-1-tetrahydropyran-4-yl-6,7-dihydro-4H-pyrazolo[4,3-c]pyridin-3-yl)-3-isoquinolyl]-2-pyridyl]ethoxy]-1-piperidyl]-N-[4-(3-chloro-4-cyano-phenoxy)cyclohexyl]pyridazine-3-carboxamide] | 
≤ 0.1 | < 1 | CC(=O)N1CCc2c(c(N3CCCc4ccc(C(F)F)cc43)nn2C2CCN(C(=O)C3CCN(c4ccc(C(=O)N[C@H]5CC[C@H](Oc6ccc(C#N)c(Cl)c6)CC5)nn4)CC3)CC2)C1 [Compound 62, 6-[4-[4-[5-acetyl-3-[7-(difluoromethyl)-3,4-dihydro-2H-quinolin-1-yl]-6,7-dihydro-4H-pyrazolo[4,3-c]pyridin-1-yl]piperidine-1-carbonyl]-1-piperidyl]-N-[4-(3-chloro-4-cyano-phenoxy)cyclohexyl]pyridazine-3-carboxamide] | 
≤ 0.1 | < 1 | CC(=O)N1CCc2c(c(-c3cccc4cc(-c5cnn(CCOC6CCN(c7ccc(C(=O)N[C@H]8CC[C@H](Oc9ccc(C#N)c(Cl)c9)CC8)nn7)CC6)c5)ncc34)nn2C2CCOCC2)C1 [Compound 26, 6-[4-[2-[4-[8-(5-acetyl-1-tetrahydropyran-4-yl-6,7-dihydro-4H-pyrazolo[4,3-c]pyridin-3-yl)-3-isoquinolyl]pyrazol-1-yl]ethoxy]-1-piperidyl]-N-[4-(3-chloro-4-cyano-phenoxy)cyclohexyl]pyridazine-3-carboxamide] | 
≤ 0.1 | < 1 | CC(=O)N1CCc2c(c(N3CCCc4cc(-c5cnn(C)c5)c(C(F)F)cc43)nn2C2CCN(CC3CCN(c4ccc(C(=O)N[C@H]5CC[C@H](Oc6ccc(C#N)c(Cl)c6)CC5)nn4)CC3)CC2)C1 [Compound 16, 6-[4-[[4-[5-acetyl-3-[7-(difluoromethyl)-6-(1-methylpyrazol-4-yl)-3,4-dihydro-2H-quinolin-1-yl]-6,7-dihydro-4H-pyrazolo[4,3-c]pyridin-1-yl]-1-piperidyl]methyl]-1-piperidyl]-N-[4-(3-chloro-4-cyano-phenoxy)cyclohexyl]pyridazine-3-carboxamide] | 
0.1 to 1 | 10 to 100 | COc1cc2c(cn1)N(c1nn(C3CCN(CC4CCN(c5ccc(C(=O)N[C@H]6CC[C@H](Oc7ccc(C#N)c(Cl)c7)CC6)nn5)CC4)CC3)c3c1CN(C(C)=O)CC3)CCC2 [Compound 109, 6-[4-[[4-[5-acetyl-3-(6-methoxy-3,4-dihydro-2H-1,7-naphthyridin-1-yl)-6,7-dihydro-4H-pyrazolo[4,3-c]pyridin-1-yl]-1-piperidyl]methyl]-1-piperidyl]-N-[4-(3-chloro-4-cyano-phenoxy)cyclohexyl]pyridazine-3-carboxamide] | 
